Measured values published in ChEMBL document CHEMBL5331077, “Combining pharmacophore models derived from DNA-encoded chemical libraries with structure-based exploration to predict Tankyrase 1 inhibitors” (Eur J Med Chem, 2023).
Active and inactive are the calls of the source. No cut-off for these calls is given here.

Assays:
[1] = molecular target: Protein mono-ADP-ribosyltransferase PARP6 (Homo sapiens) (UniProt Q2NL67); assay: Inhibition of PARP6 (unknown origin)
[2] = molecular target: T1, Protein mono-ADP-ribosyltransferase TIPARP (Homo sapiens) (UniProt Q7Z3E1); assay: Inhibition of PARP7 (unknown origin)
T1 sequence (whole entry): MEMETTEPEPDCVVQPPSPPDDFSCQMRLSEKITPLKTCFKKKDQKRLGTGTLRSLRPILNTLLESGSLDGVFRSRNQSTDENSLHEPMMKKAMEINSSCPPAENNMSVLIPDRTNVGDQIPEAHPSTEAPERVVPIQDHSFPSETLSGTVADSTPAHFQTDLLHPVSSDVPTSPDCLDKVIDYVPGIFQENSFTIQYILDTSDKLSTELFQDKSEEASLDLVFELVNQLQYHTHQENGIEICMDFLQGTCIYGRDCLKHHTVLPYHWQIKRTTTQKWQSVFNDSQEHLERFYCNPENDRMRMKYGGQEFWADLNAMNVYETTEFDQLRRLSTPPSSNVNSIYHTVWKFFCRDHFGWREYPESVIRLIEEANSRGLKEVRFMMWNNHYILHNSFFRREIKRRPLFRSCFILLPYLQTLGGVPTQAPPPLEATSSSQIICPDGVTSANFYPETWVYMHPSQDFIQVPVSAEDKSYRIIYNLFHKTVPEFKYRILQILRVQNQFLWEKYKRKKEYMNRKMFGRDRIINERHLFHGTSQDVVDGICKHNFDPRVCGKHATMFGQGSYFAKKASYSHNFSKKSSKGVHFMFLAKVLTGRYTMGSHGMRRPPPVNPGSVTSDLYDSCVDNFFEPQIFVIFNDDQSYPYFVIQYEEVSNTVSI

[3] = molecular target: T2, Protein mono-ADP-ribosyltransferase PARP11 (Homo sapiens) (UniProt Q9NR21); assay: Inhibition of PARP11 (unknown origin)
T2 sequence (whole entry): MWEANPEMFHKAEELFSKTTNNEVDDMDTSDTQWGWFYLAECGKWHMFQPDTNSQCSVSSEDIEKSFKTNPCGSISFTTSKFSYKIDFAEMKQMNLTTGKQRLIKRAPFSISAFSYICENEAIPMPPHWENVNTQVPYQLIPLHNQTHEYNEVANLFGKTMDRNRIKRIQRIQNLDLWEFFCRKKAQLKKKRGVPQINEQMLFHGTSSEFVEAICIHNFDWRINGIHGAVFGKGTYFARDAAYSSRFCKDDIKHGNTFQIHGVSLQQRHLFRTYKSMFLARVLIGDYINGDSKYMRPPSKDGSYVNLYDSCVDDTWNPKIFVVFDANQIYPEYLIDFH

[4] = molecular target: T3, Protein mono-ADP-ribosyltransferase PARP12 (Homo sapiens) (UniProt Q9H0J9); assay: Inhibition of PARP12 (unknown origin)
T3 sequence (whole entry): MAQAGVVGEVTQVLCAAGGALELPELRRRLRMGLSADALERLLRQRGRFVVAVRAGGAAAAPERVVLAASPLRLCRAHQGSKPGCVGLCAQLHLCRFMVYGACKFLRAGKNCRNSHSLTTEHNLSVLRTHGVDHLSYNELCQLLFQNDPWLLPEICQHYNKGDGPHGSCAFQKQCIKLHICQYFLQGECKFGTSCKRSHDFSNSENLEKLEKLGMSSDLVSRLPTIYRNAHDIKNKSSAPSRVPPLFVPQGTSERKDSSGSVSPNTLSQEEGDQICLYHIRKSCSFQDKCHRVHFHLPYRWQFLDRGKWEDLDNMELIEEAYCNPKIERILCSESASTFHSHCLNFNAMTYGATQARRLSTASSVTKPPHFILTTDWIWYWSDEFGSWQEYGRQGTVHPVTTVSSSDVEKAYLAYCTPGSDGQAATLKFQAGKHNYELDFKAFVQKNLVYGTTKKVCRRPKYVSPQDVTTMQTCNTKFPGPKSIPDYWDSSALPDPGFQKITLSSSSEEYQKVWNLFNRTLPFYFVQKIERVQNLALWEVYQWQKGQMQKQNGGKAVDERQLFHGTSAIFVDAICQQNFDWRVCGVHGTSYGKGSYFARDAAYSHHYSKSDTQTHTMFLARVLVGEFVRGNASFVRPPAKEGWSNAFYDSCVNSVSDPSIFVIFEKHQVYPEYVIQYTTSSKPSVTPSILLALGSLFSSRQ

[5] = molecular target: T4, Protein mono-ADP-ribosyltransferase PARP15 (Homo sapiens) (UniProt Q460N3); assay: Inhibition of PARP15 (unknown origin)
T4 sequence (whole entry): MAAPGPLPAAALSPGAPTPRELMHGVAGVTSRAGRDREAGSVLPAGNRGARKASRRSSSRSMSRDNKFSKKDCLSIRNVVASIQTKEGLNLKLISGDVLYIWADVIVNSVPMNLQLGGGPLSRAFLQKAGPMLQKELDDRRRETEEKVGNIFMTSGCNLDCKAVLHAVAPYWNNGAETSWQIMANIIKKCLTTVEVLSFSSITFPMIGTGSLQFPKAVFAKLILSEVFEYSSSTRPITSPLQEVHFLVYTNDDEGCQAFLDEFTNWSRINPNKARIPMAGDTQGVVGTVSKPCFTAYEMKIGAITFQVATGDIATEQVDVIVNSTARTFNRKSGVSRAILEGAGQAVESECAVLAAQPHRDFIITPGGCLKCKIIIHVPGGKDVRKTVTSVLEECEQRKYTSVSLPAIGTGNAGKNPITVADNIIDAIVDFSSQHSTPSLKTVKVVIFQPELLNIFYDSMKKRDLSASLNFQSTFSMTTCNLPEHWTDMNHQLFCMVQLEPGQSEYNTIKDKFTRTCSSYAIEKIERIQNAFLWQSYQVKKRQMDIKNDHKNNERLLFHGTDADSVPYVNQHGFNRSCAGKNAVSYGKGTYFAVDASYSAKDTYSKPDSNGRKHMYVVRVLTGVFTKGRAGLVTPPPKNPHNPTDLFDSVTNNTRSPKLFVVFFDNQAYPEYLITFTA

Sequence of Protein mono-ADP-ribosyltransferase PARP6 (Homo sapiens) (Q2NL67 whole entry): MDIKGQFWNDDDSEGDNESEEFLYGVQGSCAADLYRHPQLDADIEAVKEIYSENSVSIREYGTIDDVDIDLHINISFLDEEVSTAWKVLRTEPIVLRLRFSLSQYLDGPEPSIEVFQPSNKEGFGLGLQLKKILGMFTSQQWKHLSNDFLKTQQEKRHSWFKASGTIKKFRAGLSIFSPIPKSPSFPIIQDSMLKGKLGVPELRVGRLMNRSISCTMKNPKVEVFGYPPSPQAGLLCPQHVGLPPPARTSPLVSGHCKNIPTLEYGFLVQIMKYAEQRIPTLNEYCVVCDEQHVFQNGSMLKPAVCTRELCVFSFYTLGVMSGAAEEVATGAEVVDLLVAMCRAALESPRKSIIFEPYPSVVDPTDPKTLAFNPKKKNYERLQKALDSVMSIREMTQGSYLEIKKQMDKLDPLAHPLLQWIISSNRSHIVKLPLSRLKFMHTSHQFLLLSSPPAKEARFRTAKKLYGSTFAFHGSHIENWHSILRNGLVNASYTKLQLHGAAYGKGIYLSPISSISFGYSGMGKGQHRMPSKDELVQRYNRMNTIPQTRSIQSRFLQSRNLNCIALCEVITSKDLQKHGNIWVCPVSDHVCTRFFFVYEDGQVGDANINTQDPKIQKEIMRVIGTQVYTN

SMILES | inhibition [1] | inhibition [2] | inhibition [3] | inhibition [4] | inhibition [5]
CNC(=O)[C@H](CNC(=O)CCn1c(=O)[nH]c(=O)c2ccccc21)NC(=O)c1cnc2ccccc2c1 | inactive | inactive | inactive | inactive | inactive
Cc1cc(OCC(=O)NCCNC(=O)c2cccc(COc3ccccc3C(N)=O)c2)c2c3c(c(=O)oc2c1)CCC3 | inactive | inactive | inactive | inactive | Active
